Among the data in US8053574B2, “Organic compounds” (Novartis AG, priority 2007, dated 2011) are Ki values, retold here.

Molecules are shown by their SMILES.

A word on the Ki: it is the equilibrium dissociation constant of an inhibitor or competing ligand from its target.

Chain of PI3K γ (P48736 whole entry): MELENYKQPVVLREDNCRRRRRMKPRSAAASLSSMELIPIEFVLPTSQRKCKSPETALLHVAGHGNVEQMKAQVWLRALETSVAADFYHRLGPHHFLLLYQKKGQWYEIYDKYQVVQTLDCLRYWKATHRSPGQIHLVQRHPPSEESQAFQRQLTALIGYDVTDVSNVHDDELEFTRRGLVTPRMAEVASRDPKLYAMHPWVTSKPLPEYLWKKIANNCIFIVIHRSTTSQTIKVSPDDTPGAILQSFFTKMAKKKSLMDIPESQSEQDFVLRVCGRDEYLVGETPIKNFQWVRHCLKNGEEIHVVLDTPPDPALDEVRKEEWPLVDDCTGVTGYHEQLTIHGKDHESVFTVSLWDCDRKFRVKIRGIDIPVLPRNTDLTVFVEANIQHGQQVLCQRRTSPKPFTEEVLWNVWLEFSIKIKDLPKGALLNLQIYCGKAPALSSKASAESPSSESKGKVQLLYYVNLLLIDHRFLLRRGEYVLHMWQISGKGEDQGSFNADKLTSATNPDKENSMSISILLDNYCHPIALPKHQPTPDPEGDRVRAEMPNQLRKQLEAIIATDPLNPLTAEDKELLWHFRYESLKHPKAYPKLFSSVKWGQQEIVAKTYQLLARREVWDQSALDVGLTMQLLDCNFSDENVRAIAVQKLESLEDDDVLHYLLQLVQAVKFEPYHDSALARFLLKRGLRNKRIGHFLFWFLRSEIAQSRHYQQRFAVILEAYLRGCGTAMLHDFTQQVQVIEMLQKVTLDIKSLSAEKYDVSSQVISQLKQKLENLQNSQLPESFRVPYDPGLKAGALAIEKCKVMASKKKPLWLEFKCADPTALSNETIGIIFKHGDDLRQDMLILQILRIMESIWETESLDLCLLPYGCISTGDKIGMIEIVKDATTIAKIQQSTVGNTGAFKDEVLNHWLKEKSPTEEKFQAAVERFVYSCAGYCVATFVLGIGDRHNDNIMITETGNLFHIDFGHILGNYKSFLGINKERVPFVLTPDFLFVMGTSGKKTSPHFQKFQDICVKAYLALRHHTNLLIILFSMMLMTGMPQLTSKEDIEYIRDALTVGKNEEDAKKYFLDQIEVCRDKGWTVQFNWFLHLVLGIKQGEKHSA

One assay has as its target PI3K γ (Homo sapiens, UniProt P48736). Nature of the assay: PI3 kinase phosphorylation assay (Biological Method 1), Ki γ. Conditions: Table 1, compounds of formula X. Format: biochemical. As for the experimental part:
The compounds of the invention were synthesized according to the examples provided above. PI3K inhibitory (IC50) values of the compounds were determined according to Biological Method 1.
Assay 1: Homogenous Solution Phase Assay
Compounds to be tested are dissolved in DMSO and directly distributed into 384-well flashplates at 1.25 μL per well. To start the reaction, 20 μL of 6 nM PI3 kinase are added into each well followed by 20 μL of 400 nM ATP containing a trace of radiolabeled ATP and 900 nM 1-alpha-phosphatidylinositol (PI). The plates are briefly centrifuged to remove any air gap. The reaction is performed for 15 minutes and then stopped by the addition of 20 μL of 100 mM EDTA. The stopped reaction is incubated overnight at RT to allow the lipid substrate to bind by hydrophobic interaction to the surface of the flashplate. The liquid in the wells is then washed away, and the labeled substrate is detected with scintillation counting.
Assay 2: One Step Solid Phase Assay
This method is similar to Assay 1 except that the lipid substrate (1-alpha-phosphatidylinositol (PI)) is first dissolved in a coating buffer and incubated on flashplate at room temperature overnight to allow the lipid substrate to bind by hydrophobic interaction to the surface of the flashplate. Unbound substrate is then washed away. On the day of assay, 20 μL of 6 nM PI3 kinase are added into each well followed by 20 μL of 400 nM ATP containing trace of radiolabeled ATP. Compounds are added together with enzyme and ATP to the lipid-coated plates. The plates are briefly centrifuged to remove any air gap. The reaction is performed for two to three hours. The reaction is stopped by addition of 20 μL of 100 mM EDTA or by immediate plate washing. Phosphorylated lipid substrate is detected by scintillation counting.
Assay 3: ATP Depletion Assay
Compounds to be tested are dissolved in DMSO and directly distributed into a black 384-well plate at 1.25 μL per well. To start the reaction, 25 μL of 10 nM PI3 kinase and 5 μg/mL 1-alpha-phosphatidylinositol (PI) are added into each well followed by 25 μL of 2 μM ATP. The reaction is performed until approx 50% of the ATP is depleted, and then stopped by the addition of 25 μL of KinaseGlo solution. The stopped reaction is incubated for 5 minutes and the remaining ATP is then detected via luminescence.
Turning to `CCn1cnc(CCNC(=O)Nc2cn3cc(-c4cncc(C(F)(F)F)c4)ccc3n2)c1` [drawing 59], the inhibitory constant (Ki) amounted to 0.028 µM.

Molecule `CC(C)n1nnc(CCNC(=O)Nc2cn3cc(-c4cncc(-c5ccccc5)c4)ccc3n2)n1` [drawing 45] yielded a Ki of 0.24 µM. As for `CC(C)n1nnc(CCNC(=O)Nc2cn3cc(-c4cncc(OC5CCOCC5)c4)ccc3n2)n1` [drawing 39], the Ki is 0.147 µM. Still for that read-out and setting: then `CC(C)(C)NC(=O)CCNC(=O)Nc1cn2cc(-c3cncc(-c4ccccc4)c3)ccc2n1` [drawing 43], with 0.207 µM; and `Cn1nnc(CCNC(=O)Nc2cn3cc(-c4cncc(C(F)(F)F)c4)ccc3n2)n1` [drawing 89], with 0.012 µM. Molecule `CCn1nnc(CCNC(=O)Nc2cn3cc(-c4cnn(C)c4)ccc3n2)n1` [drawing 93] gave a Ki of 0.456 µM. Consider `CCc1cncc(-c2ccc3nc(NC(=O)NCCc4nnn(C(C)C)n4)cn3c2)c1` [drawing 57], for which the Ki worked out at 0.025 µM. For `CC(C)n1nnc(CCNC(=O)Nc2cn3cc(-c4cncc(C#N)c4)ccc3n2)n1` [drawing 19], the affinity, expressed as Ki, was 0.04 µM. This Ki lies about 1.6-fold higher than the previous one. For `CC(C)n1nnc(CCNC(=O)Nc2cn3cc(-c4cccc(F)c4)ccc3n2)n1` [drawing 69], the Ki came out at 0.836 µM. This Ki lies about 21-fold higher than the previous one. With `CCc1nnn(CCNC(=O)Nc2cn3cc(-c4cncc(C#N)c4)ccc3n2)n1` [drawing 65], the Ki turned out to be 0.115 µM.

Still in this assay, the particulars now being: Table 2, compounds of formula X.
Molecule `O=C(NCCc1nnn(CCF)n1)Nc1cn2cc(-c3cncc(C(F)(F)F)c3)ccc2n1` [Example 1-35, 1-{2-[2-(2-Fluoro-ethyl)-2H-tetrazol-5-yl]-ethyl}-3-[6-(5-trifluoromethyl-pyridin-3-yl)-imidazo[1,2-a]pyridin-2-yl]-urea] yielded a Ki of 0.002 µM. In the case of `CCc1nnn(CCNC(=O)Nc2cn3cc(-c4cncc(C#N)c4)ccc3n2)n1` [Example 1-26, 1-[6-(5-Cyano-pyridin-3-yl)-imidazo[1,2-a]pyridin-2-yl]-3-[2-(5-ethyl-tetrazol-2-yl)-ethyl]-urea], the Ki amounted to 0.115 µM. Same read-out and setting: then `CCc1nnn(CCNC(=O)Nc2cn3cc(-c4cncc(C(F)(F)F)c4)ccc3n2)n1` [Example 1-25, 1-[2-(5-Ethyl-tetrazol-2-yl)-ethyl]-3-[6-(5-trifluoromethyl-pyridin-3-yl)-imidazo[1,2-a]pyridin-2-yl]urea], with 0.026 µM; and `Cc1ccccc1-c1cncc(-c2ccc3nc(NC(=O)NCCc4nnn(C(C)C)n4)cn3c2)c1` [Example 1-39, 1-[2-(2-Isopropyl-2H-tetrazol-5-yl)-ethyl]-3-[6-(5-o-tolyl-pyridin-3-yl)-imidazo[1,2-a]pyridin-2-yl]urea], with 1.12 µM; and `CCn1nnc(CCNC(=O)Nc2cn3cc(-c4cnn(C)c4)ccc3n2)n1` [Example 1-40, 1-[2-(2-Ethyl-2H-tetrazol-5-yl)-ethyl]-3-[6-(1-methyl-1H-pyrazol-4-yl)-imidazo[1,2-a]pyridin-2-yl]urea], with 0.456 µM. The same measure, in the same setting: under `CCOc1cncc(-c2ccc3nc(NC(=O)NCCc4nnn(C(C)C)n4)cn3c2)c1` [Example 1-6, 1-[6-(5-Ethoxy-pyridin-3-yl)-imidazo[1,2-a]pyridin-2-yl]-3-[2-(2-isopropyl-2H-tetrazol-5-yl)-ethyl]-urea] stands 0.048 µM; under `COc1cccc(-c2ccc3nc(NC(=O)NCCc4nnn(C(C)C)n4)cn3c2)c1` [Example 1-29, 1-[2-(2-Isopropyl-2H-tetrazol-5-yl)-ethyl]-3-[6-(3-methoxy-phenyl)-imidazo[1,2-a]pyridin-2-yl]-u], 1.03 µM.

Consider `CCn1nnc(CNC(=O)Nc2cn3cc(-c4cncc(C(F)(F)F)c4)ccc3n2)n1` [Example 1-21, 1-(2-Ethyl-2H-tetrazol-5-ylmethyl)-3-[6-(5-trifluoromethyl-pyridin-3-yl)-imidazo[1,2-a]pyridin-2-yl]urea], for which the Ki worked out at 0.014 µM. On the same count and under the same terms, then `COc1ccc(-c2ccc3nc(NC(=O)NCCc4nnn(CCF)n4)cn3c2)cn1` [Example 1-20, 1-[2-[2-(2-Fluoro-ethyl)-2H-tetrazol-5-yl]-ethyl]-3-[6-(6-methoxy-pyridin-3-yl)-imidazo[1,2-a]pyridin-2-yl]-urea], with 0.075 µM; and `CC(C)n1nnc(CCNC(=O)Nc2cn3cc(-c4cncc(C(F)(F)F)c4)ccc3n2)n1` [Example 1-7, 1-[2-(2-Isopropyl-2H-tetrazol-5-yl)-ethyl]-3-[6-(5-trifluoromethyl-pyridin-3-yl)-imidazo[1,2-a]pyridin-2-yl]-urea], with 0.018 µM; and `CCn1cnc(CCNC(=O)Nc2cn3cc(-c4cncc(C(F)(F)F)c4)ccc3n2)c1` [Example 1-23, 1-[2-(1-Ethyl-1H-imidazol-4-yl)-ethyl]-3-[6-(5-trifluoromethyl-pyridin-3-yl)-imidazo[1,2-a]pyridin-2-yl]-urea], with 0.028 µM. Molecule `CC(C)n1nnc(CCNC(=O)Nc2cn3cc(-c4cncnc4)ccc3n2)n1` [Example 1-4, 1-[2-(2-Isopropyl-2H-tetrazol-5-yl)-ethyl]-3-(6-pyrimidin-5-yl-imidazo[1,2-a]pyridin-2-yl)-urea] registered a Ki of 0.165 µM. Consider `CCn1nnc(CCNC(=O)Nc2cn3cc(-c4ccc5c(c4)OCO5)ccc3n2)n1` [Example 1-8, 1-(6-Benzo[1,3]dioxol-5-yl-imidazo[1,2-a]pyridin-2-yl)-3-[2-(2-ethyl-2H-tetrazol-5-yl)-ethyl]urea], for which the Ki came out at 0.303 µM.

Staying with this assay, now noted: Table 3, compounds of formula XI.
Take `CCNC(=O)Nc1nc2ccc(-c3ccc(OC)nc3)cc2s1` [Example 2-6, 1-Ethyl-3-[6-(6-methoxy-pyridin-3-yl)-benzothiazol-2-yl]urea]: the Ki amounted to 0.406 µM.

The assay is the same for the next values; noted with them: Table 4.
For the molecule `CCn1nnc(CCNC(=O)Nc2cn3cc(-c4cncc(C#N)c4)ncc3n2)n1` [Example 3-5, 1-[6-(5-Cyano-pyridin-3-yl)-imidazo[1,2-a]pyrazin-2-yl]-3-[2-(2-ethyl-2H-tetrazol-5-yl)-ethyl]-urea], the affinity corresponds to a Ki of 0.098 µM. On the same count and under the same terms, then `CCn1nnc(CCNC(=O)Nc2cn3nc(-c4cncc(C#N)c4)ccc3n2)n1` [Example 3-2, 1-[6-(5-Cyano-pyridin-3-yl)-imidazo[1,2-b]pyridazin-2-yl]-3-[2-(2-ethyl-2H-tetrazol-5-yl)-ethyl]-urea], with 0.031 µM. Same read-out and setting: under `CCn1nnc(CCNC(=O)Nc2nc3cc(-c4cncc(C(F)(F)F)c4)ccn3n2)n1` [Example 3-16, 1-[2-(2-Ethyl-2H-tetrazol-5-yl)-ethyl]-3-[7-(5-trifluoromethyl-pyridin-3-yl)-[1,2,4]triazolo[1,5-a]pyridin-2-yl]-urea] stands 0.64 µM.

With `CCn1nnc(CCNC(=O)Nc2cn3nc(-c4cnccc4C)ccc3n2)n1` [Example 3-18, 1-[2-(2-Ethyl-2H-tetrazol-5-yl)-ethyl]-3-[6-(4-methyl-pyridin-3-yl)-imidazo[1,2-b]pyridazin-2-yl]-urea], the Ki worked out at 0.248 µM. On the same count and under the same terms, under `CCn1nnc(CCNC(=O)Nc2cn3cc(-c4cncc(C(F)(F)F)c4)ncc3n2)n1` [Example 3-4, 1-[2-(2-Ethyl-2H-tetrazol-5-yl)-ethyl]-3-[6-(5-trifluoromethyl-pyridin-3-yl)-imidazo[1,2-a]pyrazin-2-yl]-urea] stands 0.027 µM; under `CCn1nnc(CCNC(=O)Nc2nc3ccc(-c4cncc(C(F)(F)F)c4)cn3n2)n1` [Example 3-7, 1-[2-(2-Ethyl-2H-tetrazol-5-yl)-ethyl]-3-[6-(5-trifluoromethyl-pyridin-3-yl)-[1,2,4]triazolo[1,5-a]pyridin-2-yl]-urea], 0.376 µM.
